Measurements: US12383545B1, “Treatment of migraine” (priority 2018, dated 2025)
Several values for one entry are separate records, joined by “and”; a condition that tells them apart may be missing. Equal entries are not always repeated.

System: participants with episodic migraine
Experiment: Study A: phase 3 randomized double-blind placebo-controlled 12-week trial, eDiary efficacy (monthly migraine days, headache days, acute medication use days, responder rates)
Assay type: in vivo, human
Details: for Change from baseline in mean monthly acute medication use days, LS mean change (SE) / Change from baseline in mean monthly headache days, LS mean change (SE) / Change from baseline in mean monthly migraine days, LS mean change (SE) / Mean monthly acute medication use days, LSMD vs. placebo (95% CI) / Mean monthly headache days, LSMD vs. placebo (95% CI) / Mean monthly migraine days, LSMD vs. placebo (95% CI): across 12-week treatment period; for Change from baseline in mean monthly acute medication use days, LS mean change (SE) / Change from baseline in mean monthly headache days, LS mean change (SE) / Change from baseline in mean monthly migraine days, LS mean change (SE) / Mean monthly acute medication use days, LSMD vs. placebo (95% CI) / Mean monthly headache days, LSMD vs. placebo (95% CI) / Mean monthly migraine days, LSMD vs. placebo (95% CI) / ≥50% reduction in 3-month average of monthly migraine days, odds ratio vs. placebo (95% CI) / ≥50% reduction in 3-month average of monthly migraine days, responder n (%): mITT; for decrease in mean monthly headache days / decrease in monthly migraine days: 12 weeks; for decrease in mean monthly headache days / decrease in monthly migraine days / decrease in mean monthly acute medication use days: given as decrease; for decrease in mean monthly acute medication use days: across 12 weeks; for proportion of participants who reported a migraine day: first full day after study drug administration; for LS mean change from baseline in mean headache days / LS mean reduction from baseline in mean cumulative headache hours: first treatment period; for LS mean change from baseline in acute medication use days / LS mean change from baseline in moderate/severe headache days: first treatment period (weeks 1-4); for Mean change from baseline in weekly migraine days: first week of treatment; for odds ratio vs placebo for reporting a migraine: post dose day 1
Procedure: Study A: A phase 3, multicenter, randomized, double-blind, placebo-controlled, parallel-group study was conducted to evaluate the efficacy, safety, and tolerability of oral atogepant for the prevention of migraine in participants with episodic migraine (EM).
This study comprised a 4-week screening and baseline period, a 12-week double-blind treatment period, and a 4-week follow-up period. The total study duration was 20 weeks.
Adults 18 to 80 years of age with 4 to 14 migraine days per month in the 3 months prior to visit 1, and 4 to 14 migraine days during the 28-day baseline period per electronic Diary, were allowed to enroll. Inclusion criteria included at least a 1-year history of migraine with or without aura consistent with a diagnosis, diagnosed as specified in the International Classification of Headache Disorders, 3rd edition, version (ICHD-3), and the age of the participant at the time of migraine onset was <50 years. Exclusion criteria included a history of migraine accompanied by diplopia or decreased level of consciousness or retinal migraine; a current diagnosis of chronic migraine, new persistent daily headache, trigeminal autonomic cephalgia (e.g., cluster headache), or painful cranial neuropathy as defined by ICHD-3, or if they averaged 15 or more migraine days per month across the 3 months prior to Visit 1 or during the 28-day baseline period; a history of an inadequate response to >4 medications (2 of which have different mechanisms of action) prescribed for the treatment of migraine; and participants with clinically significant hematologic, endocrine, cardiovascular, pulmonary, renal, hepatic, gastrointestinal, or neurologic disease. Use of opioids or barbiturate on more than 2 days per month, triptans or ergots on 10 or more days per month, or simple analgesics (e.g., aspirin, non-steroidal anti-inflammatory drugs, acetaminophen) on 15 or more days per month in the 3 months prior to Visit 1 or during the 28-day baseline period were also excluded. Use of barbiturates was also excluded 30 days prior to screening and throughout the duration of the trial.
Randomization was stratified based on prior exposure (yes/no) to a migraine prevention medication with proven efficacy, such as antiepileptics, tricyclic antidepressants, beta-blockers, calcium channel blocker, angiotensin receptor blocker or converting enzyme inhibitor, or serotonin-norepinephrine reuptake inhibitors. Approximately 70% of randomized participants took at least one prior migraine prevention medication with proven efficacy. Participants were not on concurrent medication during the study.
A total of 910 patients were randomized 1:1:1:1 to one of the four treatment groups (10 mg QD, 30 mg QD, 60 mg QD, or placebo). Efficacy analyses were based on the Modified Intent-to-Treat Population (mITT) of 873 patients.
All participants were instructed to take trial treatment orally at approximately the same time once daily for 12 weeks. To maintain the blinding, all participants took 3 tablets of trial treatment provided in identical blister cards: placebo (placebo 10 mg/placebo 30 mg/placebo 60 mg), atogepant 10 mg (atogepant 10 mg/placebo 30 mg/placebo 60 mg), atogepant 30 mg (placebo 10 mg, atogepant 30 mg, placebo 60 mg), and atogepant 60 mg (placebo 10 mg/placebo 30 mg/atogepant 60 mg). Participants, site personnel, and trial sponsor personnel were blinded to the treatment assignment. Tablet formulations for CGRP compounds are described, for example, in U.S. Pat. No. 10,117,936.
Participants were allowed to take acute treatments for migraine which included triptans, ergot derivatives, opioids, acetaminophen, non-steroidal anti-inflammatory drugs, and antiemetic agents. Participants were not allowed to take any preventive treatments for migraine 30 days prior to visit 1 and throughout the trial.
Efficacy assessments were recorded by the participant in an electronic diary at home or via eTablet at the trial site during clinic visits. […]

[1] = range across atogepant 10, 30, 60 mg groups

## C[C@@H]1[C@H](c2c(F)ccc(F)c2F)C[C@H](NC(=O)c2cnc3c(c2)C[C@@]2(C3)C(=O)Nc3ncccc32)C(=O)N1CC(F)(F)F [atogepant]
10 mg QD
  100% reduction in 3-month average of monthly migraine days, responder n (%): 17 (7.9) %
  ≥25% reduction in 3-month average of monthly migraine days, responder n (%): 73.4%
  ≥75 reduction in 3-month average of monthly migraine days, responder n (%): 30.4%
  Change from baseline in mean monthly acute medication use days, LS mean change (SE): -3.66 days
  Change from baseline in mean monthly headache days, LS mean change (SE): -3.94 days
  Change from baseline in mean monthly migraine days, LS mean change (SE): -3.69 days
  Mean monthly acute medication use days, LSMD vs. placebo (95% CI): -1.31 days
  Mean monthly headache days, LSMD vs. placebo (95% CI): -1.42 days
  Mean monthly migraine days, LSMD vs. placebo (95% CI): -1.21 days
  ≥50% reduction in 3-month average of monthly migraine days, odds ratio vs. placebo (95% CI): 3.06
  ≥50% reduction in 3-month average of monthly migraine days, responder n (%): 55.6%
10 mg QD, listed as Atogepant
  ≥50% reduction in 3-month average of monthly migraine days, responder n (%): (55.6) %
10 mg
  decrease in mean monthly headache days: 3.94 days
  decrease in monthly migraine days: 3.69 days
  decrease in mean monthly acute medication use days: 3.66 days
  proportion of participants who reported a migraine day: 14.1%
  LS mean change from baseline in mean headache days: −3.2
  LS mean reduction from baseline in mean cumulative headache hours: -23.3 h
  LS mean change from baseline in acute medication use days: −3.3
  LS mean change from baseline in moderate/severe headache days: −3.0
  Mean change from baseline in weekly migraine days: −0.77
  odds ratio vs placebo for reporting a migraine: 0.49
10 mg, weeks 1-4
  mean change from baseline in mean monthly migraine days: −3.1
10 mg, weeks 5-8
  mean change from baseline in mean monthly migraine days: −3.7
10 mg, weeks 9-12
  mean change from baseline in mean monthly migraine days: −4.2
30 mg QD
  100% reduction in 3-month average of monthly migraine days, responder n (%): 11 (4.0) %
  ≥25% reduction in 3-month average of monthly migraine days, responder n (%): 172 (77.1) %
  ≥75 reduction in 3-month average of monthly migraine days, responder n (%): 66 (29.6) %
  Change from baseline in mean monthly acute medication use days, LS mean change (SE): -3.68 days
  Change from baseline in mean monthly headache days, LS mean change (SE): -4.04 days
  Change from baseline in mean monthly migraine days, LS mean change (SE): -3.86 days
  Mean monthly acute medication use days, LSMD vs. placebo (95% CI): -1.33 days
  Mean monthly headache days, LSMD vs. placebo (95% CI): -1.53 days
  Mean monthly migraine days, LSMD vs. placebo (95% CI): -1.38 days
  ≥50% reduction in 3-month average of monthly migraine days, odds ratio vs. placebo (95% CI): 3.53
  ≥50% reduction in 3-month average of monthly migraine days, responder n (%): 58.7%
30 mg QD, listed as Atogepant
  ≥50% reduction in 3-month average of monthly migraine days, responder n (%): (58.7) %
30 mg
  decrease in mean monthly headache days: 4.04 days
  decrease in monthly migraine days: 3.86 days
  decrease in mean monthly acute medication use days: 3.68 days
  proportion of participants who reported a migraine day: 10.8%
  LS mean change from baseline in mean headache days: −3.4
  LS mean reduction from baseline in mean cumulative headache hours: -23.6 h
  LS mean change from baseline in acute medication use days: −3.4
  LS mean change from baseline in moderate/severe headache days: −3.2
  Mean change from baseline in weekly migraine days: −0.94
  odds ratio vs placebo for reporting a migraine: 0.33
30 mg, weeks 1-4
  mean change from baseline in mean monthly migraine days: −3.4
30 mg, weeks 5-8
  mean change from baseline in mean monthly migraine days: −3.9
30 mg, weeks 9-12
  mean change from baseline in mean monthly migraine days: −4.3
60 mg QD
  100% reduction in 3-month average of monthly migraine days, responder n (%): 17 (7.7) %
  ≥25% reduction in 3-month average of monthly migraine days, responder n (%): 180 (81.1) %
  ≥75 reduction in 3-month average of monthly migraine days, responder n (%): 84 (37.8) %
  Change from baseline in mean monthly acute medication use days, LS mean change (SE): -3.85 days
  Change from baseline in mean monthly headache days, LS mean change (SE): -4.23 days
  Change from baseline in mean monthly migraine days, LS mean change (SE): -4.20 days
  Mean monthly acute medication use days, LSMD vs. placebo (95% CI): -1.50 days
  Mean monthly headache days, LSMD vs. placebo (95% CI): -1.71 days
  Mean monthly migraine days, LSMD vs. placebo (95% CI): -1.72 days
  ≥50% reduction in 3-month average of monthly migraine days, odds ratio vs. placebo (95% CI): 3.82
  ≥50% reduction in 3-month average of monthly migraine days, responder n (%): 60.8%
60 mg QD, listed as Atogepant
  ≥50% reduction in 3-month average of monthly migraine days, responder n (%): (60.8) %
60 mg
  decrease in mean monthly headache days: 4.23 days
  decrease in monthly migraine days: 4.20 days
  decrease in mean monthly acute medication use days: 3.85 days
  proportion of participants who reported a migraine day: 12.3%
  LS mean change from baseline in mean headache days: −3.8
  LS mean reduction from baseline in mean cumulative headache hours: -25.1 h
  LS mean change from baseline in acute medication use days: −3.7
  LS mean change from baseline in moderate/severe headache days: −3.8
  Mean change from baseline in weekly migraine days: −1.03
  odds ratio vs placebo for reporting a migraine: 0.39
60 mg, weeks 1-4
  mean change from baseline in mean monthly migraine days: −3.9
60 mg, weeks 5-8
  mean change from baseline in mean monthly migraine days: −4.2
60 mg, weeks 9-12
  mean change from baseline in mean monthly migraine days: −4.4
Atogepant treated participants (all doses)
  times more likely than placebo to achieve ≥50% reduction in the 12-week average of MMDs: ≥ 3 times
[1]
  participants with 100% reduction in MMDs across 12 weeks: 5%-8%
  participants with ≥25% reduction in MMDs across 12 weeks: 73%-81%
  participants with ≥50% reduction in mean MMDs across 12 weeks: 56%-61% and 56-61%
  participants with ≥75% reduction in MMDs across 12 weeks: 30%-38%
